Measurements from patent publication US20240209028A1, “CNP COMPOUNDS” (priority 2022, published 2024).
Starred links: 1 amine or outer side, 2 acyl side, 3 side chain; linkers in the order of their positions; H or OH if unused. Positions of bridges follow the written chain, without caps; N, C: chain ends. Residues, ends and D or L forms follow the SMILES beside them. *: point of attachment. C18 diacid = O=C(O)CCCCCCCCCCCCCCCCC(=O)*; γGlu = O=C(O)[C@H](CCC(=O)[*:2])N[*:1]; AEEA = NCCOCCOCC(=O)O

Experiments:
[1] = Thioflavin T (ThT) assay: lagtime and peptide recovery; format: physicochemical; conditions: assay terminated after 45 hours; for LagTime (h) at pH 4.0: ThT, 37° C., shaking; for LagTime (h) at pH 6.5: ThT assay, pH 6.5, 37° C.
Method in brief: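 ThT (final about 1 μM) was added to peptide supernatants at pH 4.0 and 6.5 and incubated at 37 °C with orbital shaking for 45 h. Fluorescence (ex 444/em 485 nm) was read every 20 min, and lag-time was taken as the time to onset of signal rise. Recovery is the RP-UPLC (215 nm) total peak area after vs. before incubation.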

[2] = PK of CNP compounds after i.v. and s.c. administration to rats; conditions: male, Sprague Dawley, in vivo, iv, rat, i.v., about 100 nmol/kg
Method in brief: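 Male Sprague Dawley rats (n=4-6) were dosed at 300 nmol/kg s.c. or 100 nmol/kg i.v., formulated at pH 7.4 or 4.0, and sampled up to 72 h. Plasma levels were measured by TF-LC-MS against calibrators from 0.5 to 2000 nM. Non-compartmental PK used dose-normalized AUC for bioavailability, with values given as means.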

| Compound | LagTime (h) at pH 4.0 [1] | clearance ([2]; read-out: Cl (L/hr/kg), i.v. administration (converted)) | half-life ([2]; read-out: T½ (hr), i.v. administration (converted)) | LagTime (h) at pH 6.5 [1] |
| --- | --- | --- | --- | --- |
| CC[C@H](C)[C@@H]1NC(=O)[C@H](CCCNC(=N)N)NC(=O)[C@H](CC(=O)O)NC(=O)[C@H](CC(C)C)NC(=O)[C@@H]2CCCN2C(=O)[C@H](CC(C)C)NC(=O)CNC(=O)[C@H](Cc2ccccc2)NC(=O)[C@@H](NC(=O)CNC(=O)[C@H](CO)NC(=O)[C@H](CO)NC(=O)[C@@H](NC(=O)CNC(=O)[C@@H](NC(=O)[C@H](Cc2c[nH]cn2)NC(=O)[C@H](CCC(N)=O)NC(=O)[C@H](C)NC(=O)CNC(=O)[C@H](Cc2c[nH]cn2)NC(=O)[C@H](Cc2ccc(O)cc2)NC(=O)[C@H](CCCCN)NC(=O)[C@H](CCCNC(=N)N)NC(=O)[C@H](C)NC(=O)COCCOCCNC(=O)COCCOCCNC(=O)CC[C@H](NC(=O)CCCCCCCCCCCCCCCCC(=O)O)C(=O)O)[C@@H](C)O)C(C)C)CSSC[C@@H](C(=O)O)NC(=O)CNC(=O)[C@H](CC(C)C)NC(=O)CNC(=O)[C@H](CO)NC(=O)[C@H](CC(C)C)NC(=O)[C@H](CO)NC(=O)CNC1=O [compound 1351] ({C18 diacid-γGlu-AEEA-AEEA}-ARKYHGAQHTGVSSGCFGLPLDRIGSLSGLGC-OH; disulfide 16-32) | 45 h | 0.0093 L/h/kg | 6.07 h | – |
| CC[C@H](C)[C@@H]1NC(=O)[C@H](CCCNC(=N)N)NC(=O)[C@H](CC(=O)O)NC(=O)[C@H](CC(C)C)NC(=O)[C@@H]2CCCN2C(=O)[C@H](CC(C)C)NC(=O)CNC(=O)[C@H](Cc2ccccc2)NC(=O)[C@@H](NC(=O)CNC(=O)[C@H](CCC(N)=O)NC(=O)[C@H](CO)NC(=O)[C@H](CC(C)C)NC(=O)CNC(=O)[C@H](CCCCN)NC(=O)[C@H](CCCCN)NC(=O)[C@H](CCC(N)=O)NC(=O)[C@H](C)NC(=O)CNC(=O)[C@H](CCCCN)NC(=O)[C@H](Cc2ccc(O)cc2)NC(=O)COCCOCCNC(=O)COCCOCCNC(=O)COCCOCCNC(=O)COCCOCCNC(=O)CC[C@H](NC(=O)CC[C@H](NC(=O)CCCCCCCCCCCCCCCCC(=O)O)C(=O)O)C(=O)O)CSSC[C@@H](C(=O)O)NC(=O)CNC(=O)[C@H](CC(C)C)NC(=O)CNC(=O)[C@H](CO)NC(=O)[C@H](CC(C)C)NC(=O)[C@H](CO)NC(=O)CNC1=O [compound 1478] ({C18 diacid-γGlu-γGlu-AEEA-AEEA-AEEA-AEEA}-YKGAQKKGLSQGCFGLPLDRIGSLSGLGC-OH; disulfide 13-29; C-terminus assumed) | 0.33 h | – | – | 45 h |
| CC[C@H](C)[C@@H]1NC(=O)[C@H](CCCNC(=N)N)NC(=O)[C@H](CC(=O)O)NC(=O)[C@H](CC(C)C)NC(=O)[C@@H]2CCCN2C(=O)[C@H](CC(C)C)NC(=O)CNC(=O)[C@H](Cc2ccccc2)NC(=O)[C@@H](NC(=O)CNC(=O)[C@H](CCC(N)=O)NC(=O)[C@H](CO)NC(=O)[C@H](CC(C)C)NC(=O)CNC(=O)[C@H](CCCCN)NC(=O)[C@H](CCCCN)NC(=O)[C@H](CCC(N)=O)NC(=O)[C@H](C)NC(=O)CNC(=O)[C@@H]2CCCN2C(=O)[C@H](C)NC(=O)[C@H](CCC(N)=O)NC(=O)CNC(=O)COCCOCCNC(=O)COCCOCCNC(=O)CC[C@H](NC(=O)CCCCCCCCCCCCCCCCC(=O)O)C(=O)O)CSSC[C@@H](C(=O)O)NC(=O)CNC(=O)[C@H](CC(C)C)NC(=O)CNC(=O)[C@H](CO)NC(=O)[C@H](CC(C)C)NC(=O)[C@H](CO)NC(=O)CNC1=O [compound 1484] ({C18 diacid-γGlu-AEEA-AEEA}-GQAPGAQKKGLSQGCFGLPLDRIGSLSGLGC-OH; disulfide 15-31; C-terminus assumed) | – | – | – | 4 h |
| CC[C@H](C)[C@@H]1NC(=O)[C@H](CCCNC(=N)N)NC(=O)[C@H](CCC(=O)O)NC(=O)[C@H](CC(C)C)NC(=O)[C@@H]2CCCN2C(=O)[C@H](CC(C)C)NC(=O)CNC(=O)[C@H](Cc2ccccc2)NC(=O)[C@@H](NC(=O)CNC(=O)[C@H](CCC(N)=O)NC(=O)[C@H](CO)NC(=O)CNC(=O)CNC(=O)[C@H](CCCCN)NC(=O)[C@H](CCCCN)NC(=O)[C@H](CCC(N)=O)NC(=O)[C@H](C)NC(=O)CNC(=O)[C@H](CCCCN)NC(=O)[C@H](Cc2ccc(O)cc2)NC(=O)COCCOCCNC(=O)COCCOCCNC(=O)COCCOCCNC(=O)COCCOCCNC(=O)CC[C@H](NC(=O)CC[C@H](NC(=O)CCCCCCCCCCCCCCCCC(=O)O)C(=O)O)C(=O)O)CSSC[C@@H](C(=O)O)NC(=O)CNC(=O)[C@H](CC(C)C)NC(=O)CNC(=O)[C@H](CO)NC(=O)[C@H](CC(C)C)NC(=O)[C@H](CO)NC(=O)CNC1=O [compound 1489] ({C18 diacid-γGlu-γGlu-AEEA-AEEA-AEEA-AEEA}-YKGAQKKGGSQGCFGLPLERIGSLSGLGC-OH; disulfide 13-29) | 45 h | – | – | – |
| CC[C@H](C)[C@@H]1NC(=O)[C@H](CCCNC(=N)N)NC(=O)[C@H](CC(=O)O)NC(=O)[C@H](CC(C)C)NC(=O)[C@@H]2CCCN2C(=O)[C@H](CC(C)C)NC(=O)CNC(=O)[C@H](Cc2ccccc2)NC(=O)[C@@H](NC(=O)CNC(=O)[C@H](CCC(N)=O)NC(=O)[C@H](CO)NC(=O)[C@H](CC(C)C)NC(=O)CNC(=O)[C@H](CCCCN)NC(=O)[C@H](CCCCN)NC(=O)[C@H](CCC(N)=O)NC(=O)[C@H](C)NC(=O)CNC(=O)[C@H](CCCCN)NC(=O)[C@H](Cc2ccc(O)cc2)NC(=O)COCCOCCNC(=O)COCCOCCNC(=O)COCCOCCNC(=O)COCCOCCNC(=O)CC[C@H](NC(=O)CC[C@H](NC(=O)CC[C@H](NC(=O)CCCCCCCCCCCCCCCCC(=O)O)C(=O)O)C(=O)O)C(=O)O)CSSC[C@@H](C(=O)O)NC(=O)CNC(=O)[C@H](CC(C)C)NC(=O)CNC(=O)[C@H](CO)NC(=O)[C@H](CC(C)C)NC(=O)[C@H](CO)NC(=O)CNC1=O [compound 9480] ({C18 diacid-γGlu-γGlu-γGlu-AEEA-AEEA-AEEA-AEEA}-YKGAQKKGLSQGCFGLPLDRIGSLSGLGC-OH; disulfide 13-29) | – | – | – | 45 h |
| CC[C@H](C)[C@@H]1NC(=O)[C@H](CCCNC(=N)N)NC(=O)[C@H](CCC(=O)O)NC(=O)[C@H](CC(C)C)NC(=O)[C@@H]2CCCN2C(=O)[C@H](CC(C)C)NC(=O)CNC(=O)[C@H](Cc2ccccc2)NC(=O)[C@@H](NC(=O)CNC(=O)[C@H](CO)NC(=O)[C@H](CO)NC(=O)[C@H](CC(C)C)NC(=O)CNC(=O)[C@H](CCCCN)NC(=O)[C@H](CCCCN)NC(=O)[C@H](CCC(N)=O)NC(=O)[C@H](C)NC(=O)CNC(=O)[C@H](CCCCN)NC(=O)[C@H](Cc2ccc(O)cc2)NC(=O)[C@H](CCCCN)NC(=O)[C@H](CCCNC(=N)N)NC(=O)[C@H](C)NC(=O)[C@H](CCC(N)=O)NC(=O)[C@@H]2CCCN2C(=O)[C@H](Cc2c[nH]cn2)NC(=O)[C@H](CCC(=O)O)NC(=O)[C@H](CCC(N)=O)NC(=O)CC[C@H](NC(=O)CC[C@H](NC(=O)CC[C@H](NC(=O)CC[C@H](NC(=O)CCCCCCCCCCCCCCCCC(=O)O)C(=O)O)C(=O)O)C(=O)O)C(=O)O)CSSC[C@@H](C(=O)O)NC(=O)CNC(=O)[C@H](CC(C)C)NC(=O)CNC(=O)[C@H](CO)NC(=O)[C@H](CC(C)C)NC(=O)[C@H](CO)NC(=O)CNC1=O [compound 9483] ({C18 diacid-γGlu-γGlu-γGlu-γGlu}-QEHPQARKYKGAQKKGLSSGCFGLPLERIGSLSGLGC-OH; disulfide 21-37) | 45 h | – | – | – |
